Like-named read-outs stand apart in the source and are kept apart here.
Key:
[1] = system: differentiated SH-SY5Y cells; experiment: Cell proliferation (cytotoxicity) analysis with xCELLigence, SH-SY5Y; type: cell-based, human; conditions: for IC50: Homo sapiens, SH-SY5Y
Procedure: (§1) Cell proliferation analysis was performed with xCELLigence Real-Time Cell Analysis System to assess TSA, RG108, givinostat, and rifampin concentrations for use in both models. Differentiated SH-SY5Y and HMC3 microglia cells were seeded at a 5x10^3 density per well and incubated 24 h until CI values reached a log phase. The system stopped at the end of 24 h, 100, 10 and 1 μM TSA, givinostat, RG108 and rifampin were applied on current media and the cell viability was tracked. […] Simultaneously, slope plots were drawn using the CI values at 24 and 48 hours, and the statistical significance of the values discovered by assuming the average CI values of the control wells to be 100% was calculated.

[2] = system: differentiated SH-SY5Y cells; experiment: Cell viability against Aβ-induced neurotoxicity, xCELLigence; type: cell-based, human; conditions: 24 h pretreatment (drugs 100 nM; CFS 1 μg/ml + IFN-γ; LPS 100 ng/ml + IFN-γ), then 5 μM Aβ (1–42) aggregates 24 h
Procedure: Pathological deterioration in AD is mainly associated with overproduction of the Aβ peptide and the Aβ (1–42) variant is the toxic form that is more predominant in Alzheimer’s patients. In this study, a modified oligomeric Aβ (1–42) neurotoxicity analysis protocol was applied in order to elucidate the effects of treatment groups on SH-SY5Y cell viability in the presence of Aβ [56]. In order to model Aβ-induced neurotoxicity in vitro, an oligomeric form of the Aβ1–42 peptide was prepared by diluting with ice-cold Ham’s F12 Nutrient Mixture medium dissolved in PBS containing 0.02 M NaOH at a final concentration of 50 μM and kept in a 37°C incubator for 7 days to form peptide aggregates prior to the experiments. 5x10^3 SH-SY5Y cells were differentiated inside the xCELLigence instrument for 5 days and treated with 100 nM TSA, RG108, givinostat, rifampin; 100 ng/ml LPS+IFN-ɣ or 1 μg/ml CFS+IFN-ɣ for 24 h in order to evaluate neuroprotection. The co-culture was performed in the same way as the neuroinflammation model. Neurotoxicity was obtained instead of neuroinflammation by diluting to 5 μM with fresh medium and adding Aβ1–42 aggregates to the wells for 24 h in 100 μl of medium. Cell viability data was then monitored for 24 h and analyzed within the instrument.

[3] = system: low density lipoprotein receptor-related protein 1 (LRP-1) and P-glycoprotein (P-gp); design: method as in PMID 22504320; conditions: by upregulating LRP-1 and P-gp; cited from earlier work
mutated COS-7 cells = system: mutated COS-7 cells; design: method as in PMID 27020329; conditions: mutated COS-7 cells expressing amyloid precursor protein; cited from earlier work
HMC3 microglia cells = experiment: Cell proliferation (cytotoxicity) analysis with xCELLigence, HMC3; type: cell-based, human; conditions: for IC50: Homo sapiens
Procedure: as §1

[4] = system: differentiated SH-SY5Y cells; experiment: Annexin V-PI staining of Aβ-induced cell death, flow cytometry; type: cell-based, human; conditions: pretreatment (drugs 100 nM; LPS 100 ng/ml + IFN-γ; CFS 1 μg/ml + IFN-γ) + 5 μM Aβ 24 h
Procedure: To determine neuronal apoptosis associated with Aβ exposure, 25x10^3 differentiated SH-SY5Y cells were seeded in 24-well plates and Aβ was applied. After 24 h, cells were trypsinized and staining was performed according to the CF 488A Annexin V and PI Apoptosis Kit (Biotium, USA, Cat. No: 30061) protocol. After washing the cells with 1xPBS, the working solution was prepared by diluting the PI with Annexin V binding buffer included in the kit. 5 μl Annexin V and 2 μl PI working solution were added to the centrifuge tubes and binded with 100 μl Annexin V binding buffer. After the samples were incubated for 30 minutes on ice and in the dark, 400 μl of Annexin V binding buffer was added to each tube and the samples were measured and analyzed in a BD Accuri™ C6 flow cytometry device.

SH-SY5Y cells = experiment: Total ROS/Superoxide detection; type: cell-based, human
Procedure: The Total ROS/Superoxide Detection Kit (ENZ-51010, Enzo) was used according to the kit process for evaluating the protective effects of the treatment groups on SH-SY5Y cells seeded at a 2x10^4 density per well in 96-well plates and Aβ was applied. ROS inhibitor N-acetyl cysteine (NAC) was applied at 5 mM concentration to negative control groups 30 minutes before the experiment and after incubation, 100 μL of “ROS/Superoxide Detection Solution” was added to the wells in the kit. The same procedure was done without the application of ROS inhibitor. Fluorometric analysis of stained cells was analyzed with Cytation 3 Cell Imaging Multi-Mode Reader (BioTek) using 490/525 nm and 550/620 nm filter sets.

In the case of `CO[C@H]1/C=C/O[C@@]2(C)Oc3c(C)c(O)c4c(O)c(c(/C=N/N5CCN(C)CC5)c(O)c4c3C2=O)NC(=O)/C(C)=C\C=C\[C@H](C)[C@H](O)[C@@H](C)[C@@H](O)[C@@H](C)[C@H](OC(C)=O)[C@@H]1C` [Rifampin, rifampin], the “Reduction of differentiated SH-SY5Y cell viability” value ([1]; 1 μM, 24 hours) is reported as 30.28%, the “Reduction of differentiated SH-SY5Y cell viability” value ([1]; 1 μM, 48 hours) is reported as 17.16% and the “Reduction of differentiated SH-SY5Y cell viability” value ([1]; 10 μM, 24 hours) is reported as 46.98%. For the same compound, the “Reduction of differentiated SH-SY5Y cell viability” value ([1]; 10 μM, 48 hours) was 25%, the “Reduction of differentiated SH-SY5Y cell viability” value ([1]; 100 μM, 24 hours) was 97.24% and the “Reduction of differentiated SH-SY5Y cell viability” value ([1]; 100 μM, 48 hours) was 98.61%. For the same compound, the IC50 ([1]; 24 h, from CI values at 24th hour, 1, 10 and 100 μM tested, read-out: IC50 Values 24h SH-SY5Y) was greater than 400 µM, the IC50 ([1]; 48 h, from CI values at 48th hour, 1, 10 and 100 μM tested, read-out: IC50 Values 48h SH-SY5Y) was 64.4 µM and the “CI values compared to the control group” value [2] was 120.7%. For the same compound, the “Effect on Aβ clearance” value [3] was “increasing Aβ clearance”, the “Effect on Aβ, tau, and α-synuclein aggregation” value (mutated COS-7 cells) was “minimize Aβ, tau, and α-synuclein aggregation” and the “Reduction of HMC3 cell viability compared to the control group” value (“Reduction of HMC3 cell viability” below) (HMC3 microglia cells; 10 μM, 24 hours) was 12.72%. For the same compound, the “Reduction of HMC3 cell viability” value (HMC3 microglia cells; 10 μM, 48 hours) was 17.79%, the “Reduction of HMC3 cell viability” value (HMC3 microglia cells; 100 μM, 24 hours) was 15.74% and the “Reduction of HMC3 cell viability” value (HMC3 microglia cells; 100 μM, 48 hours) was 28.72%. For the same compound, the IC50 (HMC3 microglia cells; HMC3, 24 h, from CI values at 24th hour, 1, 10 and 100 μM tested, read-out: IC50 Values 24h HMC3) was 33.2 µM, the IC50 (HMC3 microglia cells; HMC3, 48 h, from CI values at 48th hour, 1, 10 and 100 μM tested, read-out: IC50 Values 48h HMC3) was 31 µM and the “Necrotic effect (Q5-UL)” value ([4]; control 1.6%) was 8.1%. The “Apoptotic effect (early apoptosis + late apoptosis)” value ([4]; control 1.9%) was 5.8%, the “Percentage of living cells (Live)” value ([4]; control 96.5%) was 86.2% and the “Increase of total amount of ROS compared to the control group, with NAC” value (SH-SY5Y cells; 30 minutes NAC 5 mM, treated (drugs 100 nM; LPS 100 ng/ml; CFS 1 μg/ml, with IFN-γ) prior to Aβ exposure) was 0.25%. For the same compound, the “Decrease of total ROS amount according to the Aβ group” value (SH-SY5Y cells; cells treated (drugs 100 nM; LPS 100 ng/ml; CFS 1 μg/ml, with IFN-γ) before exposure to Aβ, without NAC) was 43.14% and the “Increase of total amount of ROS compared to the control group” value (SH-SY5Y cells; cells treated (drugs 100 nM; LPS 100 ng/ml; CFS 1 μg/ml, with IFN-γ) before exposure to Aβ, without NAC, not significant) was 0.43%.

Source: PMC8631675, “Neuroprotective effects of some epigenetic modifying drugs’ on Chlamydia pneumoniae-induced neuroinflammation: A novel model” (PLoS ONE, 2021)
